Consider five compounds from patent publication US12508248B2, “Therapeutic agent for prototheca disease” (priority 2019, dated 2025).

Series [1] has as its system several strains of Prototheca wickerhamii and Prototheca zopfii. The following applies: previous study on susceptibility, Non-Patent Document 1; cited from earlier work.
For series [2] the following is noted: when administered to humans; cited from earlier work.
The test system of series [3] is Candida parapsilosis ATCC 22019. The series can be described thus: MIC assay of the CLSI M27-A3 test, control strain. Type of series: cell-based. As for the experimental part:
(§1) The isolates were maintained on Yeast Extract-Peptone-Dextrose agar (YPD: 1% yeast extract, 2% peptone, 2% dextrose, 2% agar) and tested for antifungal susceptibility. The susceptibility of the isolates to the antifungal agents itraconazole (ITZ, Merck KGA) and ravuconazole (RVZ, selenium pharma) was measured using a trace liquid dilution method (broth microdilution assay) according to the CLSI M27-A3 guideline. The minimum inhibitory concentration (MIC) was measured after culturing at 32 degrees for 72 hours. MIC was defined as the lowest concentration that induces significant inhibition of growth (inhibition of about 50% or more). As a control, Candida parapsilosis ATCC 22019 obtained from ATCC was used, and the MIC assay of the CLSI M27-A3 test was performed.

A further series relates to Prototheca wickerhamii. The series can be described thus: Broth microdilution MIC assay, CLSI M27-A3 guideline. Type of series: cell-based. The following applies: for MICs: 32 degrees, 72 hours. The protocol: (§2) For Prototheca wickerhamii, isolates (1 cat strain and 2 dog strains) were obtained from dogs and cats suffering from a prototheca disease. For Prototheca zopfii, bovine prototheca mastitis isolates (Genotype 2, 10 strains) and environmental isolates (Genotype 1, 10 strains) were obtained. For Prototheca blaskeae, a prototheca mastitis isolate (1 strain) was obtained. For Prototheca zopfii, the drug susceptibility was tested also on Genotype 1 established strain (SAG20063^T) and Genotype 2 established strain (SAG2021^T).
as §1

The subject of another series is Prototheca blaskeae. Described as above. It counts as cell-based. As to conditions: strain NUBS19005, bovine protothecal mastitis; 32 degrees, 72 hours. As for the experimental part:
as §2, §1

The subject of series [4] is Prototheca zopfii Genotype 1. The series is described as above. It counts as cell-based. As to conditions: for MICs: 32 degrees, 72 hours. As for the experimental part:
as §2, §1

For series [5], the system named is Prototheca zopfii Genotype 2. The description is as above. Type of series: cell-based. As to conditions: 32 degrees, 72 hours. As for the experimental part:
as §2, §1

The next series has as its system prototheca species. The series can be described thus: Overall comparison of anti-algae effect against prototheca species. It counts as cell-based. The protocol: as §1
The mark [6] stands for this setting: strain NUBS19001, feline protothecosis.
[7] abbreviates: strain NUBS19002, canine protothecosis.
Setting [8] is: strain NUBS19003, canine protothecosis.
Setting [9] is: strain NUBS19004, environment (GT1).
[10] abbreviates: strain SAG2063T, type strain of (GT1).
Where [11] appears, read: strain A7, bovine protothecal mastitis (GT2).
[12] abbreviates: strain A8, bovine protothecal mastitis (GT2).
[13] abbreviates: strain A9, bovine protothecal mastitis (GT2).
Setting [14] is: strain A10, bovine protothecal mastitis (GT2).
The mark [15] stands for this setting: strain A11, bovine protothecal mastitis (GT2).
Where [16] appears, read: strain A13, bovine protothecal mastitis (GT2).
Where [17] appears, read: strain A14, bovine protothecal mastitis (GT2).
Setting [18] is: strain A15, bovine protothecal mastitis (GT2).
Where [19] appears, read: strain A16, bovine protothecal mastitis (GT2).
Where [20] appears, read: strain A17, bovine protothecal mastitis (GT2).
Setting [21] is: strain SAG2021T, type strain of GT2.

In brackets after ≈: the same amount, converted by molar mass.

On to `C[C@@H]1[C@H](O)[C@@H](C)/C=C/C=C/C=C/C=C/C=C/C=C/C=C/[C@H](O[C@@H]2O[C@H](C)[C@@H](O)[C@H](N)[C@@H]2O)C[C@@H]2O[C@](O)(C[C@@H](O)C[C@@H](O)[C@H](O)CC[C@@H](O)C[C@@H](O)CC(=O)O[C@H]1C)C[C@H](O)[C@H]2C(=O)O` [AMB, amphotericin B], for which, in series [1], the “effectiveness against several strains of Prototheca wickerhamii and Prototheca zopfii” value is on record as “not effective”.

In the case of `C[C@@H](c1nc(-c2ccc(C#N)cc2)cs1)[C@@](Cn1cncn1)(OCOP(=O)(O)O)c1ccc(F)cc1F` [Fosravuconazole, fosravuconazole], in series [2], the “conversion of prodrug to ravuconazole” value was “rapidly converted to ravuconazole”.

`CCC(C)n1ncn(-c2ccc(N3CCN(c4ccc(OCC5COC(Cn6cncn6)(c6ccc(Cl)cc6Cl)O5)cc4)CC3)cc2)c1=O` (stereo not shown) [ITZ, itraconazole] came in with an MIC in series [3] (Lodderomyces parapsilosis, ATCC22019) of 0.125 µg/mL (≈ 0.177 µM). In addition, the MICs is over 32 mg/L against Prototheca wickerhamii (setting [6]); over 32 mg/L against Prototheca wickerhamii (setting [7]); 4 mg/L against Prototheca wickerhamii (setting [8]); 32 mg/L with Prototheca blaskeae; 2 mg/L in series [4] (strain I1, environment (GT1)); 0.25 mg/L in series [4] (strain I3, environment (GT1)). Also, the MICs is recorded as 1 mg/L in series [4] (setting [9]); 32 mg/L in series [4] (strain S2, environment (GT1)); 8 mg/L in series [4] (strain S3, environment (GT1)); over 32 mg/L in series [4] (strain S29, environment (GT1)); 16 mg/L in series [4] (strain S36, environment (GT1)); 8 mg/L in series [4] (strain S42, environment (GT1)). The MICs is recorded as 1.5 mg/L in series [4] (setting [10]); 4 mg/L in series [4] (strain W3, environment (GT1)); 4 mg/L in series [4] (strain W20, environment (GT1)); 32 mg/L in series [5] (setting [11]); 4 mg/L in series [5] (setting [12]); over 32 mg/L in series [5] (setting [13]). The MICs was over 32 mg/L in series [5] (setting [14]); over 32 mg/L in series [5] (setting [15]); over 32 mg/L in series [5] (setting [16]); over 32 mg/L in series [5] (setting [17]); over 32 mg/L in series [5] (setting [18]); 8 mg/L in series [5] (setting [19]). In addition, the values for the MICs in series [5] (setting [20]) and in series [5] (setting [21]) were 4 mg/L and over 32 mg/L, respectively.

Take gentamicin: the “effectiveness against several strains of Prototheca wickerhamii and Prototheca zopfii” value in series [1] is “not effective”.

Take ravuconazole [RVZ]: the “effectiveness (anti-algae effect) compared with itraconazole against pathogen of prototheca species” value in the series with prototheca species (versus itraconazole) is given as “more effective”. In addition, the “activity compared with publicly known results of kanamycin, gentamicin, amphotericin B and itraconazole against prototheca species” value in the series with prototheca species (versus publicly known results of KM, GM, AMB, ITZ) was “stronger activity”. Also, the “MIC for the control strain Candida parapsilosis ATCC 22019” value in series [3] amounted to 0.03 µg/mL. The MICs is listed as 0.03 mg/L against Prototheca wickerhamii (setting [6]); 0.03 mg/L with Prototheca wickerhamii (setting [7]); 0.03 mg/L against Prototheca wickerhamii (setting [8]); 0.03 mg/L against Prototheca blaskeae; 0.03 mg/L in series [4] (strain I1, environment (GT1)); 0.03 mg/L in series [4] (strain I3, environment (GT1)). For the same compound, the MICs in series [4] (setting [9]) worked out at 0.03 mg/L; in series [4] (strain S2, environment (GT1)) it was 0.03 mg/L; in series [4] (strain S3, environment (GT1)) it was 0.03 mg/L; in series [4] (strain S29, environment (GT1)), 0.03 mg/L; in series [4] (strain S36, environment (GT1)) it was 0.03 mg/L; in series [4] (strain S42, environment (GT1)), 0.03 mg/L. The MICs was 0.03 mg/L in series [4] (setting [10]); 0.03 mg/L in series [4] (strain W3, environment (GT1)); 0.03 mg/L in series [4] (strain W20, environment (GT1)); 0.125 mg/L in series [5] (setting [11]); 0.03 mg/L in series [5] (setting [12]); 0.03 mg/L in series [5] (setting [13]). The MICs is on record as 0.03 mg/L in series [5] (setting [14]); 0.25 mg/L in series [5] (setting [15]); 0.125 mg/L in series [5] (setting [16]); 0.03 mg/L in series [5] (setting [17]); 0.0625 mg/L in series [5] (setting [18]); 0.03 mg/L in series [5] (setting [19]). Besides, the MICs in series [5] (setting [20]) worked out at 0.25 mg/L; in series [5] (setting [21]), 0.125 mg/L. The “MIC of the three clinical isolates of Prototheca wickerhamii” value in the series on Prototheca wickerhamii (summary over three clinical isolates) was 0.03 µg/mL. Besides, the “MIC of 11 isolates of Genotype 1 of Prototheca zopfii” value in series [4] (summary over 11 isolates of Genotype 1) was 0.03 µg/mL.
